pIC50: −log10 of the molar value.

plasminogen activator inhibitor 1 (PAI-1), sequence (P05121 24-402): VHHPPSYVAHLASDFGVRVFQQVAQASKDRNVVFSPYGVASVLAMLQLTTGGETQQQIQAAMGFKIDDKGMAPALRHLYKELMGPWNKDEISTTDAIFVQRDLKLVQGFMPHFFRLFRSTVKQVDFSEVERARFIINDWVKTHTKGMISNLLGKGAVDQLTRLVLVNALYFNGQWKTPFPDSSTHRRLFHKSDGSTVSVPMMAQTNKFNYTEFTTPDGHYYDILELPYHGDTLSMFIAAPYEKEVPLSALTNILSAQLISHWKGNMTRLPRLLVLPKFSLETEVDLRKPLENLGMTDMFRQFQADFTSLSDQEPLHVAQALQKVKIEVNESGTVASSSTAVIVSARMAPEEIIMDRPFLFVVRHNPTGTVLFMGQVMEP

The test concerns the target plasminogen activator inhibitor 1 (PAI-1) (Homo sapiens, UniProt P05121). Description: Bioassay for PAI-1 inhibitors (tPA amidolysis of chromogenic substrate in presence of PAI-1). The following applies: inhibition of PAI-1 measured via tPA activity; 4.5 nM PAI-1, 7.5 nM tPA, 1 mM substrate H-D-Ile-Pro-Arg-pNA, TRIS buffer pH 8.4, OD 405 nm, 37° C. 60 minutes. Format: biochemical. As for the experimental part:
For the detection of the inhibitors of PAI-1, a test is run in which the activation of a specific substrate by tPA is measured in the presence of a defined amount of PAI-1 and the substance in each case to be investigated. tPA is inhibited by PAI-1. An inhibition of PAI-1 results in an increased tPA activity. The enzymatic activity of tPA is measured colorimetrically by employing a chromogenic substrate which becomes colored after amidolysis.
Reaction: The inhibition of the enzymatic activity of tPA by PAI-1 is measured by means of the amidolysis of the chromogenic substrate H-D-IIe-Pro-Arg-pNA (Chromogenix; pNA=para-nitroaniline) as the optical density (OD) at a wavelength of 405 nm.
Extracts or pure substances, for example of the spirobenzofuran lactam derivatives prepared or characterized in examples 4–10, which are present dissolved in DMSO, were diluted in a suitable manner using TRIS buffer pH 8.4.
5 μl of test substance and 5 μl of PAI-1 are preincubated at room temperature for 30 minutes. 10 μl of tPA solution and 20 μl of substrate solution are then added.
The final concentrations in the sample are 50 μM test substance, 4.5 nM PAI-1, 7.5 nM tPA and 1 mM substrate in TRIS buffer pH 8.4. Immediately after the addition of the substrate, the initial absorption is measured at 405 nm. After incubation at 37° C. for 60 minutes, the absorption is measured again.
In each case, blank samples (buffer instead of tPA), positive controls=B (buffer instead of test substances) and tPA controls=A (buffer instead of PAI-1) are co-tested.
After correction by means of the blank samples, the inhibition is determined according to the following equation: […]
The results of the assay are shown as IC50 values in Table 1.
What is called pIC50 is the IC50 on a negative log10 scale, so that one unit is a factor of ten. On to `CC1CCC2C(C)(C)C(O)CCC2(C)C12Cc1c(O)cc3c(c1O2)CN(C(Cc1ccccc1)C(=O)O)C3=O` (stereo not drawn) [Compound of the formula (II)], for which the negative logarithm of the IC50 (pIC50) was 4.39. For `CCC(C)C(C(=O)O)N1Cc2c(cc(O)c3c2OC2(C3)C(C)CCC3C(C)(C)C(O)CCC32C)C1=O` (stereo not drawn) [Compound of the formula (III)] the value was 4.18. For `CC(C)CC(C(=O)O)N1Cc2c(cc(O)c3c2OC2(C3)C(C)CCC3C(C)(C)C(O)CCC32C)C1=O` (stereo not drawn) [Compound of the formula (IV)] the value was 4.46.
